Consider one molecule from US20250213531A1, “5-MEO-DTM FOR THE TREATMENT OF BIPOLAR DISORDER” (GH RESEARCH IRELAND LIMITED, priority 2022, published 2025).

The data set has as its system patients with postpartum depression (PPD). Description: Clinical trial of inhaled 5-MeO-DMT (IDR) in postpartum depression, one patient (6 mg then 12 mg). The settings on record: n=1. As to the method: The single-arm, open-label clinical trial will involve 15 adult female patients with clinically diagnosed postpartum depression (PPD).
The second dose (12 mg) will only be administered if: • a. […] The 6 mg dose was safe and well-tolerated according to the investigator, • c. Any psychoactive effects (PsE) of the prior dose have subsided, and • d. Pre-dose vital parameters and forced expiratory volume in one second (FEV1) are in normal range, or if outside of the normal range, are not clinically significant according to the investigator. • 3. Similarly, a third dose (18 mg) will only be administered if: • a. […] The 12 mg dose was safe and well-tolerated according to the investigator, and • c. Any PsE of the prior dose have subsided, and • d. Pre-dose vital parameters and forced expiratory volume in one second (FEV1) are in normal range, or if outside of the normal range, are not clinically significant according to the investigator.
The patients will be assessed for a peak psychedelic experience (based on a patient-scored visual analogue scale, the PE scale), sedation, and other endpoints after dosing. Follow-up visits are planned for Day 1, and Day 7 after the dosing day.

Turning to `COc1ccc2[nH]cc(CCN(C)C)c2c1` [5-MeO-DMT], the “standard criteria for MADRS response (at least 50% improvement) and MADRS remission (total score <=10)” value was “fulfilled”; the “tolerability of inhalation procedure” value is recorded as “well tolerated with no inhalation-related adverse events”. Besides, where the note is “Day 0”, the “adverse events (cramping left abdominal pain, headache)” value is “mild, short-lasting and resolved spontaneously”. Further, the “ECG, safety laboratory analyses, CADSS” value (ECG 3 hours, laboratory 7 days, CADSS 3 hours, 1 day, 7 days) was “unremarkable”.
